In patent publication US20090270594A1, “USE OF THYMOSIN ALPHA 1 FOR THE PREPARATION OF A MEDICAMENT FOR THE PREVENTION AND TREATMENT OF ALLERGIES” (SIGMA-TAU INDUSTRIE FARMACEUTICHE, priority 2006, published 2009):
Where no end group is shown, it is not given here.

Assays:
[1] = test system: mice with ABPA (allergy to Aspergillus fumigatus); assay: Allergic Bronchopulmonary Aspergillosis (ABPA) allergy model in mice; format: in vivo
Procedure: (§1) Evaluation of the efficacy of thymosin alpha 1 in two experimental models of allergy. A model consists of inducing an allergic state by administering chicken ovalbumin (OVA) in allergising conditions. The other consists of inducing the allergy from environmental allergens, and namely the spores of the fungus Aspergillus fumigatus.
The induction of the allergic pathology due to Aspergillus (called ABPA, Allergic Bronchopulmonary Aspergillosis) and to OVA was carried out as described in table 1 (Montagnoli C, Fallarino F, Gaziano R, Bozza S, Bellocchio S, Zelante T, Kurup W P, Pitzurra L, Puccetti P, Romani L. Immunity and tolerance to Aspergillus involve functionally distinct regulatory T cells and tryptophan catabolism. J. Immunol. 2006, 176:1712-1723). The mice received an intraperitoneal (i.p.) and subcutaneous (s.c.) injection of 5 μg of A. fumigatus culture filter (CCFA) dissolved in an incomplete Freund adjuvant (Sigma) followed by two consecutive intranasal injections (one week apart) of 20 μg CCFA. One week after the last intranasal contact, the mice received 10^7 Aspergillus conidia intratracheally (i.t.) […]. The mice received 10 μg of OVA via i.p./s.c. on day 0, followed by two consecutive intranasal injections (one week apart) of 10 μg of OVA (chicken OVA grade VI; Sigma-Aldrich) together with 1 mg of Al(OH)3 (Alum Inject; Pierce, Rockford, Ill.) as adjuvant dissolved in a sterile saline solution. The mice were analysed for inflammation and allergy parameters a week later. For the histological analysis, sections (from 3 to 4 μm) of tissues immersed in paraffin were coloured with periodical Schiff acid (PAS) to evaluate the general morphology. The lung sections coloured with PAS were examined at 50, 200 and 400 enlargements to assess the “Globet” type cells typical of the allergy.
The differential total and total lung cell counts were carried out by colouring the lung of allergic mice with May-Grünwald reagents (Giemsa Sigma) before the analysis.
(§2) The collagen levels in the lungs were determined as described (Montagnoli C, Fallarino F, Gaziano R, Bozza S, Bellocchio S, Zelante T, Kurup WP, Pitzurra L, Puccetti P, Romani L. Immunity and tolerance to Aspergillus involve functionally distinct regulatory T cells and tryptophan catabolism. J. Immunol. 2006, 176:1712-1723). The concentrations of hydroxyproline were calculated by means of a standard hydroxyproline curve (zero to 100 μg/ml).
IgE determination in the serum. Total IgE in the serum samples was determined by enzyme-linked immunosorbent assay (Montagnoli C, Fallarino F, Gaziano R, Bozza S, Bellocchio S, Zelante T, Kurup WP, Ptzurra L, Puccetti P, Romani L. Immunity and tolerance to Aspergillus involve functionally distinct regulatory T cells and tryptophan catabolism. J. Immunol. 2006, 176:1712-1723 in the serum samples was measured by enzyme-linked immunosorbent assay).
Treatment with thymosin alpha 1. Tα1 (purchased from Sigma, St. Louis, Mo., USA; product no. T3410; molecular formula C129H215N33O55) and the scrambled peptide were supplied as sterile dried powders. The powders were reconstituted in sterile water (endotoxin levels were <0.03 pg/ml, by means of standard Limulus lysate assay). Tα1 was administered at a dosage of 50 and 200 microgrammes/kg i.p. according to the design reported in tables 1 and 2, both in the ABPA model and in the allergy from OVA. Mice controls received the scrambled peptide. In selected experiments, the mice were treated for comparison with a known agent that could improve the allergic symptomatology: oligodeoxynucleotide, containing non-methylated CpG (CpG) sequences.

[2] = test system: mice with allergy from OVA; assay: Allergy from OVA (chicken ovalbumin) model in mice; format: in vivo; conditions: FIG. 1B
Procedure: as §1
The induction of the allergic pathology due to Aspergillus (called ABPA, Allergic Bronchopulmonary Aspergillosis) and to OVA was carried out as described in table 1 (Montagnoli C, Fallarino F, Gaziano R, Bozza S, Bellocchio S, Zelante T, Kurup W P, Pitzurra L, Puccetti P, Romani L. Immunity and tolerance to Aspergillus involve functionally distinct regulatory T cells and tryptophan catabolism. J. Immunol. 2006, 176:1712-1723). The mice received an intraperitoneal (i.p.) and subcutaneous (s.c.) injection of 5 μg of A. fumigatus culture filter (CCFA) dissolved in an incomplete Freund adjuvant (Sigma) followed by two consecutive intranasal injections (one week apart) of 20 μg CCFA. […] The mice were analysed for inflammation and allergy parameters a week later. […]
as §2
IgE determination in the serum. Total IgE in the serum samples was determined by enzyme-linked immunosorbent assay (Montagnoli C, Fallarino F, Gaziano R, Bozza S, Bellocchio S, Zelante T, Kurup WP, Ptzurra L, Puccetti P, Romani L. Immunity and tolerance to Aspergillus involve functionally distinct regulatory T cells and tryptophan catabolism. J. Immunol. 2006, 176:1712-1723 in the serum samples was measured by enzyme-linked immunosorbent assay). […]

[3] = FIG. 1A, Tα1 200 microgrammes i.p., both prophylaxis and therapy, vs control mice
[4] = Tα1 200 microgrammes i.p., both prophylaxis and therapy, vs control mice

thymosin alpha 1 (Ac-SDAAVDTSSEITTKDLKEKKEVVEEAEN; ends and bridges not checked; UniProt P06454 2-29, looked up) [Tα1, thymic peptide found in nature; purchased from Sigma, product no; T3410]
IgE antibodies [1, 3]: drastic reduction
local production of hydroxyproline [1, 3]: drastic reduction
reduction in allergic inflammatory parameters (hydroxyproline, IgE) at lower dosages ([1]; FIG. 1A, lower dosages (50 microgrammes/kg i.p.)): not at lower dosages
efficacy in reducing the allergic inflammation parameters, Tα1 compared with CpG ([1]; FIG. 2, both in prophylaxis and therapy): comparable efficacy
recruitment of monocytes/macrophages (pulmonary) ([1]; FIG. 3): did not have any appreciable effects
recruitment of neutrophils (pulmonary) ([1]; FIG. 3): did not have any appreciable effects
recruitment of eosinophils (pulmonary) ([1]; FIG. 3, both in prophylaxis and in therapy): drastic reduction
hyperplasia of submucose glandular (Globet) cells in pulmonary sections ([1]; FIG. 4, histology (PAS)): decreased hyperplasia
inflammatory infiltrate in pulmonary sections ([1]; FIG. 4, histology (PAS), prophylactic treatment): considerably reduced
IgE antibodies [2, 4]: drastic reduction
local production of hydroxyproline [2, 4]: drastic reduction
reduction in allergic inflammatory parameters (hydroxyproline, IgE) at lower dosages ([2]; lower dosages (50 microgrammes/kg i.p.)): not at lower dosages
